The pIC50 is −log10 of the IC50, conventionally taken in molar units. The low end stands for a large IC50, the high end for a small IC50.

pIC50: −log10 of the molar value.

The experiment has as its target T1, Human ATX protein (Homo sapiens, UniProt Q13822).
T1 construct: made in house
Nature of the experiment: ATX biochemical FRET assay with FS-3 substrate. To be noted: FS-3 substrate 2 μM, ATX 1.0 μg/mL, 30 min preincubation, 2 hours at room temperature. An excerpt: ATX (Autotaxin) is a 125 KDa glycoprotein with lysophospholipase D (LPLD) activity that generates the bioactive lipid lysophosphatidic acid (LPA) from lysophosphatidylcholine (LPC). The ATX biochemical assay utilizes a FRET (fluorescence resonance energy transfer) technology platform. The fluorescence signal of FRET substrate FS-3 is quenched due to intra-molecular FRET of a fluorophore to a non-fluorescing quencher (Ferguson, C. G., et al., Org Lett. 2006 May 11; 8(10): 2023-2026, which is incorporated by reference in its entirety). ATX catalyzes the hydrolysis of the substrate which separates the dabsyl quencher from the fluorescein reporter, which becomes fluorescent. The reaction is monitored by a SpectraMax M5 (Molecular Devices, Sunnyvale, Calif.) with at excitation wavelength 485 nm and emission wavelength […].
Fatty acid free-BSA (Sigma A8806): 10 mg/mL in H2O, stored at 4° C.
2×ATX assay buffer: 100 mM Tris, 280 mM NaCl, 10 mM KCl, 2 mM CaCl2, 2 mM MgCl2, pH 7.4.
Human ATX protein: expressed and purified in house. Stored at −80° C.
Substrate FS-3 (Echelon, L-2000): 100 μg in 77.74.L H2O (1 mM stock), stored at −20° C.
384-well flat bottom plates—Corning #3575.
Compound dilution—All compounds were provided at 10 mM in 100% DMSO. In the first well, 2 μL of 10 mM compound was added to 78 μL of DMSO (1:40 dilution). In subsequent wells 3-fold dilution (total 10 dilutions) were performed.
1×ATX assay buffer was made up with a final concentration of 1 mg/mL fatty acid free-BSA using 2×ATX assay buffer, 10 mg/ml fatty acid free-BSA and ddH2O.
ATX protein was diluted with 1×ATX assay buffer to a concentration of 1.32 μg/mL (1.32×). 38 μL was added per well to the assay plate. The final concentration of ATX in the reaction as 1.0 μg/mL.
2 μL per well of compounds was transferred to provide the desired concentration. The plate was centrifuged, then incubated at room temperature for 30 minutes on the shaker.
FS-3 was diluted with 1×ATX assay buffer to a concentration of FS-3 of 10 μM (5×). Then, 10 μL was added per well to the assay plate. The final concentration of FS-3 in the reaction was 2 μM. The plate was centrifuged. The plate was kept shaking at room temperature for 2 hours. Because FS-3 substrate is light sensitive, plates were kept covered and protected from light.
Fluorescence was measured using SpectraMax M5 (excitation at 485 nm/emission at 538 nm, top read).
Regarding `CCC(c1ccc2c(C(F)F)c(O[C@H]3CC[C@@H](C)CC3)ccc2c1)N1CC(CC(=O)O)C1` (relative stereo) [Example 99, 1-(1-(5-(Difluoromethyl)-6-((cis-4-methylcyclohexyl)oxy)naphthalen-2-yl)propyl)azetidine-3-acetic acid], the negative logarithm of the IC50 (pIC50) is at least 7.00.

In turn, `C[C@H]1CC[C@@H](Oc2ccc3cc(CN4CCC[C@H](CC(=O)O)C4)ccc3c2C(F)F)CC1` [Example 56, 2-((3R)-1-((6-((cis-4-Methylcyclohexyl)oxy)-5-(difluoromethyl)naphthalen-2-yl)methyl)piperidin-3-yl)acetic acid] gave a pIC50 of at least 7.00.

As to `CC(NC1CC(C(=O)O)C1(C)C)c1ccc2c(C(F)(F)F)c(O[C@H]3CC[C@@H](C(F)(F)F)CC3)ccc2c1` (stereo partly drawn) [Example 37, 2,2-dimethyl-3-(1-(5-(trifluoromethyl)-6-((cis)-4-(trifluoromethyl)cyclohexyloxy)naphthalen-2-yl)ethylamino)cyclobutanecarboxylic acid], the negative-log IC50 (pIC50) is at least 7.00.

`C[C@H]1CC[C@@H](Oc2ccc3cc(CN4CCOC(CC(=O)O)C4)ccc3c2C(F)(F)F)CC1` (stereo partly shown) [Example 8] had a pIC50 of at least 6.30.

In turn, `CCC(c1ccc2c(C(F)F)c(O[C@H]3CC[C@@H](C)CC3)ccc2c1)N1CCC[C@H](CC(=O)O)C1` (stereo partly drawn) [Example 57, 2-((3R)-1-(1-(6-((cis-4-Methylcyclohexyl)oxy)-5-(difluoromethyl)naphthalen-2-yl)propyl)piperidin-3-yl)acetic acid] gave a pIC50 of at least 7.00.

The compound `O=C(O)CC1CCCCN1Cc1ccc2c(C(F)(F)F)c(O[C@H]3CC[C@@H](C(F)(F)F)CC3)ccc2c1` (relative stereo) [Example 27, 2-(1-((5-(trifluoromethyl)-6-((cis)-4-(trifluoromethyl)cyclohexyloxy)naphthalen-2-yl)methyl)piperidin-2-yl)acetic acid] showed a pIC50 of at least 6.60.

Regarding `CC1(C)C(NCc2ccc3c(C(F)(F)F)c(O[C@H]4CC[C@@H](C(F)(F)F)CC4)ccc3c2)CC1C(=O)O` (stereo partly drawn) [Example 1, 2,2-dimethyl-3-(((5-(trifluoromethyl)-6-((cis-4-(trifluoromethyl)cyclo-hexyl)oxy)naphthalen-2-yl)methyl)amino)cyclobutanecarboxylic acid], the pIC50 is at least 6.30.

For `O=C(O)C1CCN(Cc2ccc3c(C(F)F)c(O[C@H]4CC[C@@H](C(F)(F)F)CC4)ccc3c2)CC1` [Example 21, 1-((5-(difluoromethyl)-6-((cis-4-(trifluoromethyl)cyclohexyl)oxy)naphthalen-2-yl)methyl)piperidine-4-carboxylic acid], the pIC50 was at least 6.60.

In turn, `CC1(C)C(NCc2ccc3c(C(F)F)c(O[C@H]4CC[C@@H](C(F)(F)F)CC4)ccc3c2)CC1C(=O)O` (relative stereo) [Example 33, 3-((5-(difluoromethyl)-6-((cis)-4-(trifluoromethyl)cyclohexyloxy)naphthalen-2-yl)methylamino)-2,2-dimethylcyclobutanecarboxylic acid] had a pIC50 of at least 6.30.

`C[C@@H](c1ccc2c(C(F)(F)F)c(O[C@H]3CC[C@@H](C)CC3)ccc2c1)N1CCC[C@H](CC(=O)O)C1` [Example 95, 2-((3R)-1-((S)-1-(6-((cis-4-Methylcyclohexyl)oxy)-5-(trifluoromethyl)naphthalen-2-yl)ethyl)piperidin-3-yl)acetic acid] had a pIC50 of at least 7.00.

With `CCC(c1ccc2c(C(F)(F)F)c(O[C@H]3CC[C@@H](CC)CC3)ccc2c1)N1CCC[C@H](CC(=O)O)C1` (stereo partly drawn) [Example 7, 2-((3R)-1-(1-(6-((cis-4-ethylcyclohexyl)oxy)-5-(trifluoromethyl)naphthalen-2-yl)propyl)piperidin-3-yl)acetic acid], the pIC50 is at least 7.00.

With `C[C@H]1CC[C@@H](Oc2ccc3cc(CN4CC(CC(=O)O)C4)ccc3c2C(F)(F)F)CC1` [Example 47, 1-((5-trifluoromethyl-6-(cis-4-methylcyclohexyloxy)naphthalene-2-yl)methyl)-azetidine-3-acetic acid], the negative logarithm of the IC50 (pIC50) was at least 6.30.

The compound `CC1(C)C(NC(c2ccc3c(C(F)(F)F)c(O[C@H]4CC[C@@H](C)CC4)ccc3c2)C2CC2)CC1C(=O)O` (stereo partly shown) [Example 38] showed a pIC50 of at least 6.60.

`CC(c1ccc2c(C(F)F)c(O[C@H]3CC[C@@H](C)CC3)ccc2c1)N1CCC(C(=O)O)CC1` (relative stereo) [Example 55, 1-(1-(6-((cis-4-Methylcyclohexyl)oxy)-5-(difluoromethyl)naphthalen-2-yl)ethyl)piperidine-4-carboxylic acid] gave a pIC50 of at least 7.00.

Compound `C[C@H]1CC[C@@H](Oc2ccc3cc(CN4CCC[C@H](CC(=O)O)C4)ccc3c2C(F)(F)F)CC1` [Example 49, 2-((3R)-1-((6-((cis-4-Methylcyclohexyl)oxy)-5-(trifluoromethyl)naphthalen-2-yl)methyl)piperidin-3-yl)acetic acid] had a pIC50 of at least 7.00.

`CCC(c1ccc2c(C(F)F)c(O[C@H]3CC[C@@H](C)CC3)ccc2c1)N1CCC(C(=O)O)CC1` (relative stereo) [Example 58, 1-(1-(6-((cis-4-Methylcyclohexyl)oxy)-5-(difluoromethyl)naphthalen-2-yl)propyl)piperidine-4-carboxylic acid] gave a negative logarithm of the IC50 (pIC50) of at least 7.00.

Compound `O=C(O)C1CN(Cc2ccc3c(C(F)(F)F)c(O[C@H]4CC[C@@H](C(F)(F)F)CC4)ccc3c2)CCC1O` (relative stereo) [Example 35, 4-hydroxy-1-((5-(trifluoromethyl)-6-((cis)-4-(trifluoromethyl)cyclohexyloxy)naphthalen-2-yl)methyl)piperidine-3-carboxylic acid] gave a pIC50 of at least 6.30.

`O=C(O)[C@H]1CC[C@@H](NCc2ccc3c(C(F)(F)F)c(O[C@H]4CC[C@@H](C(F)(F)F)CC4)ccc3c2)CC1` [Example 70, cis-4-(((5-(trifluoromethyl)-6-((cis)-4-(trifluoromethyl)cyclohexyloxy)naphthalene-2-yl)methyl)amino)cyclohexane-1-carboxylic acid] showed a pIC50 of at least 6.30.

Take `C[C@H](c1ccc2c(C(F)(F)F)c(O[C@H]3CC[C@@H](C)CC3)ccc2c1)N1CCC[C@H](CC(=O)O)C1` [Example 96, 2-((3R)-1-((R)-1-(6-((cis-4-Methylcyclohexyl)oxy)-5-(trifluoromethyl)naphthalen-2-yl)ethyl)piperidin-3-yl)acetic acid]: the negative logarithm of the IC50 (pIC50) is at least 7.00.

Turning to `CC(c1ccc2c(C(F)F)c(O[C@H]3CC[C@@H](C)CC3)ccc2c1)N1CC(CC(=O)O)C1` (relative stereo) [Example 98, 1-(1-(5-(Difluoromethyl)-6-((cis-4-methylcyclohexyl)oxy)naphthalen-2-yl)ethyl)azetidine-3-acetic acid], the negative-log IC50 (pIC50) was at least 7.00.

`CC[C@H]1CC[C@@H](Oc2ccc3cc(CN4CCC[C@H](CC(=O)O)C4)ccc3c2C(F)(F)F)CC1` [Example 84, 2-((R)-1-((2-(cis-4-(ethyl)cyclohexyloxy)-1-(trifluoromethyl)naphthalen-6-yl)methyl)piperidin-3-yl)acetic acid] gave a pIC50 of at least 7.00.

In turn, `O=C(O)C1CCN(Cc2ccc3c(C(F)(F)F)c(O[C@H]4CC[C@@H](C(F)(F)F)CC4)ccc3c2)CC1` [Example 2, 1-((5-(trifluoromethyl)-6-((cis-4-(trifluoromethyl)cyclohexyl)oxy)-naphthalen-2-yl)methyl)piperidine-4-carboxylic acid] gave a pIC50 of at least 6.30.

As to `CC1(C)C(NC(c2ccc3c(C(F)(F)F)c(O[C@H]4CC[C@@H](C(F)(F)F)CC4)ccc3c2)C2CCCCC2)CC1C(=O)O` (stereo partly shown) [Example 43], the negative logarithm of the IC50 (pIC50) is at least 6.30.

As to `O=C(O)CC1CCCN(Cc2ccc3c(C(F)(F)F)c(O[C@H]4CC[C@@H](C(F)(F)F)CC4)ccc3c2)C1` (relative stereo) [Example 67, 1-((5-(trifluoromethyl)-6-((cis-4-(trifluoromethyl)cyclohexyl)oxy)-naphthalen-2-yl)methyl)piperidine-3-acetic acid], the pIC50 was at least 6.60.

`O=C(O)[C@H]1CCCN(Cc2ccc3c(C(F)(F)F)c(O[C@H]4CC[C@@H](C(F)(F)F)CC4)ccc3c2)C1` [Example 26, (S)-1-((5-(trifluoromethyl)-6-((cis)-4-(trifluoromethyl)cyclohexyloxy)naphthalen-2-yl)methyl)piperidine-3-carboxylic acid]: the pIC50 was at least 6.60.

(Values after US9555050B2 (BIOGEN MA INC., priority 2012, dated 2017).)
